Measured values as given in PMC11124822, “Discovery and Anticancer Screening of Novel Oxindole-Based Derivative Bearing Pyridyl Group as Potent and Selective Dual FLT3/CDK2 Kinase Inhibitor” (Pharmaceuticals, 2024).

The compounds below were run on MOLT-4 (assay: NCI-60 antiproliferative screen (SRB)). Conditions: Homo sapiens; 10 µM single dose, 48 h; MOLT-4 (Leukemia); read-out: Growth inhibition (%).
Assay type: cell-based
Work on `O=C1Nc2ccccc2C1=Cc1ccc(OCc2ccccc2)cc1` (mixture of isomers) [Compound 5a, (E/Z)-3-[4-(Benzyloxy)benzylidene] indolin-2-one] yielded an inhibition at 10 µM of 2.73%.

What follows are compounds tested on RPMI-8226 (assay: NCI-60 antiproliferative screen (SRB)). Conditions: Homo sapiens; 10 µM single dose, 48 h; RPMI-8226 (Leukemia); read-out: Growth inhibition (%).
Assay type: cell-based, human
`O=C1Nc2ccccc2C1=Cc1ccc(OCc2ccccc2)cc1` (mixture of isomers) [Compound 5a, (E/Z)-3-[4-(Benzyloxy)benzylidene] indolin-2-one] showed an inhibition at 10 µM of 1.13%.

The compounds below were run on HOP-62 (assay: NCI-60 antiproliferative screen (SRB)). Conditions: Homo sapiens; 10 µM single dose, 48 h; HOP-62 (NSCLC); read-out: Growth inhibition (%).
Assay type: cell-based, human
Work on `O=C1Nc2ccccc2C1=Cc1ccc(OCc2ccccc2)cc1` (mixture of isomers) [Compound 5a, (E/Z)-3-[4-(Benzyloxy)benzylidene] indolin-2-one] yielded an inhibition at 10 µM of -4.06%.

These compounds were tested on HCC-2998 (assay: NCI-60 antiproliferative screen (SRB)). Conditions: Homo sapiens; 10 µM single dose, 48 h; HCC-2998 (Colon); read-out: Growth inhibition (%).
Assay type: cell-based, human
`O=C1Nc2ccccc2C1=Cc1ccc(OCc2ccccc2)cc1` (mixture of isomers) [Compound 5a, (E/Z)-3-[4-(Benzyloxy)benzylidene] indolin-2-one] was tested, and the inhibition at 10 µM was -13.1%.

These compounds were tested on HCT-116 (assay: NCI-60 antiproliferative screen (SRB)). Conditions: Homo sapiens; 10 µM single dose, 48 h; HCT-116 (Colon); read-out: Growth inhibition (%).
Assay type: cell-based, human
Compound `O=C1Nc2ccccc2C1=Cc1ccc(OCc2ccccc2)cc1` (mixture of isomers) [Compound 5a, (E/Z)-3-[4-(Benzyloxy)benzylidene] indolin-2-one] has an inhibition at 10 µM of 4.24%.

The compounds below were run on KM12 (assay: NCI-60 antiproliferative screen (SRB)). Conditions: Homo sapiens; 10 µM single dose, 48 h; KM12 (Colon); read-out: Growth inhibition (%).
Assay type: cell-based, human
With `O=C1Nc2ccccc2C1=Cc1ccc(OCc2ccccc2)cc1` (mixture of isomers) [Compound 5a, (E/Z)-3-[4-(Benzyloxy)benzylidene] indolin-2-one] the inhibition at 10 µM was -3.15%.

Each compound was assayed on SW-620 (assay: NCI-60 antiproliferative screen (SRB)). Conditions: Homo sapiens; 10 µM single dose, 48 h; SW-620 (Colon); read-out: Growth inhibition (%).
Assay type: cell-based, human
Compound `O=C1Nc2ccccc2C1=Cc1ccc(OCc2ccccc2)cc1` (mixture of isomers) [Compound 5a, (E/Z)-3-[4-(Benzyloxy)benzylidene] indolin-2-one] has an inhibition at 10 µM of -7.33%.

What follows are compounds tested on SF-295 (assay: NCI-60 antiproliferative screen (SRB)). Conditions: Homo sapiens; 10 µM single dose, 48 h; SF-295 (CNS); read-out: Growth inhibition (%).
Assay type: cell-based, human
With `O=C1Nc2ccccc2C1=Cc1ccc(OCc2ccccc2)cc1` (mixture of isomers) [Compound 5a, (E/Z)-3-[4-(Benzyloxy)benzylidene] indolin-2-one] the inhibition at 10 µM was -6.78%.

These compounds were tested on SF-539 (assay: NCI-60 antiproliferative screen (SRB)). Conditions: Homo sapiens; 10 µM single dose, 48 h; SF-539 (CNS); read-out: Growth inhibition (%).
Assay type: cell-based, human
`O=C1Nc2ccccc2C1=Cc1ccc(OCc2ccccc2)cc1` (mixture of isomers) [Compound 5a, (E/Z)-3-[4-(Benzyloxy)benzylidene] indolin-2-one] showed an inhibition at 10 µM of -3.4%.

What follows are compounds tested on U251 (assay: NCI-60 antiproliferative screen (SRB)). Conditions: Homo sapiens, U-251; 10 µM single dose, 48 h; U251 (CNS); read-out: Growth inhibition (%).
Assay type: cell-based, human
`O=C1Nc2ccccc2C1=Cc1ccc(OCc2ccccc2)cc1` (mixture of isomers) [Compound 5a, (E/Z)-3-[4-(Benzyloxy)benzylidene] indolin-2-one] showed an inhibition at 10 µM of -3.49%.

What follows are compounds tested on MALME-3M (assay: NCI-60 antiproliferative screen (SRB)). Conditions: Homo sapiens; 10 µM single dose, 48 h; MALME-3M (Melanoma); read-out: Growth inhibition (%).
Assay type: cell-based, human
For `O=C1Nc2ccccc2C1=Cc1ccc(OCc2ccccc2)cc1` (mixture of isomers) [Compound 5a, (E/Z)-3-[4-(Benzyloxy)benzylidene] indolin-2-one], the inhibition at 10 µM was -7.59%.

Each compound was assayed on M14 (assay: NCI-60 antiproliferative screen (SRB)). Conditions: Homo sapiens; 10 µM single dose, 48 h; M14 (Melanoma); read-out: Growth inhibition (%).
Assay type: cell-based, human
In the case of `O=C1Nc2ccccc2C1=Cc1ccc(OCc2ccccc2)cc1` (mixture of isomers) [Compound 5a, (E/Z)-3-[4-(Benzyloxy)benzylidene] indolin-2-one], the inhibition at 10 µM is reported as 5.67%.

The compounds below were run on SK-MEL-2 (assay: NCI-60 antiproliferative screen (SRB)). Conditions: Homo sapiens; 10 µM single dose, 48 h; SK-MEL-2 (Melanoma); read-out: Growth inhibition (%).
Assay type: cell-based, human
`O=C1Nc2ccccc2C1=Cc1ccc(OCc2ccccc2)cc1` (mixture of isomers) [Compound 5a, (E/Z)-3-[4-(Benzyloxy)benzylidene] indolin-2-one] showed an inhibition at 10 µM of -4.59%.

What follows are compounds tested on SK-MEL-28 (assay: NCI-60 antiproliferative screen (SRB)). Conditions: Homo sapiens; 10 µM single dose, 48 h; SK-MEL-28 (Melanoma); read-out: Growth inhibition (%).
Assay type: cell-based, human
For `O=C1Nc2ccccc2C1=Cc1ccc(OCc2ccccc2)cc1` (mixture of isomers) [Compound 5a, (E/Z)-3-[4-(Benzyloxy)benzylidene] indolin-2-one], the inhibition at 10 µM was -7.21%.

These compounds were tested on UACC-257 (assay: NCI-60 antiproliferative screen (SRB)). Conditions: Homo sapiens; 10 µM single dose, 48 h; UACC-257 (Melanoma); read-out: Growth inhibition (%).
Assay type: cell-based, human
`O=C1Nc2ccccc2C1=Cc1ccc(OCc2ccccc2)cc1` (mixture of isomers) [Compound 5a, (E/Z)-3-[4-(Benzyloxy)benzylidene] indolin-2-one] gave an inhibition at 10 µM of -9.45%.

These compounds were tested on OVCAR-5 (assay: NCI-60 antiproliferative screen (SRB)). Conditions: Homo sapiens; 10 µM single dose, 48 h; OVCAR-5 (Ovarian); read-out: Growth inhibition (%).
Assay type: cell-based, human
Compound `O=C1Nc2ccccc2C1=Cc1ccc(OCc2ccccc2)cc1` (mixture of isomers) [Compound 5a, (E/Z)-3-[4-(Benzyloxy)benzylidene] indolin-2-one] has an inhibition at 10 µM of -2.24%.

The compounds below were run on OVCAR-8 (assay: NCI-60 antiproliferative screen (SRB)). Conditions: Homo sapiens; 10 µM single dose, 48 h; OVCAR-8 (Ovarian); read-out: Growth inhibition (%).
Assay type: cell-based, human
`O=C1Nc2ccccc2C1=Cc1ccc(OCc2ccccc2)cc1` (mixture of isomers) [Compound 5a, (E/Z)-3-[4-(Benzyloxy)benzylidene] indolin-2-one] was tested, and the inhibition at 10 µM was 2.34%.

Each compound was assayed on NCI/ADR-RES (assay: NCI-60 antiproliferative screen (SRB)). Conditions: Homo sapiens; 10 µM single dose, 48 h; NCI/ADR-RES (Ovarian); read-out: Growth inhibition (%).
Assay type: cell-based, human
`O=C1Nc2ccccc2C1=Cc1ccc(OCc2ccccc2)cc1` (mixture of isomers) [Compound 5a, (E/Z)-3-[4-(Benzyloxy)benzylidene] indolin-2-one] gave an inhibition at 10 µM of -0.55%.

The compounds below were run on A498 (assay: NCI-60 antiproliferative screen (SRB)). Conditions: Homo sapiens; 10 µM single dose, 48 h; A498 (Renal); read-out: Growth inhibition (%).
Assay type: cell-based, human
In the case of `O=C1Nc2ccccc2C1=Cc1ccc(OCc2ccccc2)cc1` (mixture of isomers) [Compound 5a, (E/Z)-3-[4-(Benzyloxy)benzylidene] indolin-2-one], the inhibition at 10 µM is reported as 7.9%.

Each compound was assayed on CAKI-1 (assay: NCI-60 antiproliferative screen (SRB)). Conditions: Homo sapiens; 10 µM single dose, 48 h; CAKI-1 (Renal); read-out: Growth inhibition (%).
Assay type: cell-based, human
Compound `O=C1Nc2ccccc2C1=Cc1ccc(OCc2ccccc2)cc1` (mixture of isomers) [Compound 5a, (E/Z)-3-[4-(Benzyloxy)benzylidene] indolin-2-one] has an inhibition at 10 µM of 2%.

The compounds below were run on RXF 393 (assay: NCI-60 antiproliferative screen (SRB)). Conditions: Homo sapiens; 10 µM single dose, 48 h; RXF 393 (Renal); read-out: Growth inhibition (%).
Assay type: cell-based, human
`O=C1Nc2ccccc2C1=Cc1ccc(OCc2ccccc2)cc1` (mixture of isomers) [Compound 5a, (E/Z)-3-[4-(Benzyloxy)benzylidene] indolin-2-one] was tested, and the inhibition at 10 µM was -16.2%.

The compounds below were run on UO-31 (assay: NCI-60 antiproliferative screen (SRB)). Conditions: Homo sapiens; 10 µM single dose, 48 h; UO-31 (Renal); read-out: Growth inhibition (%).
Assay type: cell-based, human
With `O=C1Nc2ccccc2C1=Cc1ccc(OCc2ccccc2)cc1` (mixture of isomers) [Compound 5a, (E/Z)-3-[4-(Benzyloxy)benzylidene] indolin-2-one] the inhibition at 10 µM was 14.9%.

The compounds below were run on PC-3 (assay: NCI-60 antiproliferative screen (SRB)). Conditions: Homo sapiens; 10 µM single dose, 48 h; PC-3 (Prostate); read-out: Growth inhibition (%).
Assay type: cell-based, human
`O=C1Nc2ccccc2C1=Cc1ccc(OCc2ccccc2)cc1` (mixture of isomers) [Compound 5a, (E/Z)-3-[4-(Benzyloxy)benzylidene] indolin-2-one] was tested, and the inhibition at 10 µM was 5.85%.

The compounds below were run on DU-145 (assay: NCI-60 antiproliferative screen (SRB)). Conditions: Homo sapiens; 10 µM single dose, 48 h; DU-145 (Prostate); read-out: Growth inhibition (%).
Assay type: cell-based, human
`O=C1Nc2ccccc2C1=Cc1ccc(OCc2ccccc2)cc1` (mixture of isomers) [Compound 5a, (E/Z)-3-[4-(Benzyloxy)benzylidene] indolin-2-one] gave an inhibition at 10 µM of -4.38%.

The compounds below were run on MCF7 (assay: NCI-60 antiproliferative screen (SRB)). Conditions: Homo sapiens; 10 µM single dose, 48 h; MCF7 (Breast); read-out: Growth inhibition (%).
Assay type: cell-based, human
Compound `O=C1Nc2ccccc2C1=Cc1ccc(OCc2ccccc2)cc1` (mixture of isomers) [Compound 5a, (E/Z)-3-[4-(Benzyloxy)benzylidene] indolin-2-one] has an inhibition at 10 µM of 15.8%.

What follows are compounds tested on MDA-MB-231 (assay: NCI-60 antiproliferative screen (SRB)). Conditions: Homo sapiens; 10 µM single dose, 48 h; MDA-MB-231 (Breast); read-out: Growth inhibition (%).
Assay type: cell-based, human
In the case of `O=C1Nc2ccccc2C1=Cc1ccc(OCc2ccccc2)cc1` (mixture of isomers) [Compound 5a, (E/Z)-3-[4-(Benzyloxy)benzylidene] indolin-2-one], the inhibition at 10 µM is reported as -10%.

The compounds below were run on MDA-MB-468 (assay: NCI-60 antiproliferative screen (SRB)). Conditions: Homo sapiens; 10 µM single dose, 48 h; MDA-MB-468 (Breast); read-out: Growth inhibition (%).
Assay type: cell-based, human
In the case of `O=C1Nc2ccccc2C1=Cc1ccc(OCc2ccccc2)cc1` (mixture of isomers) [Compound 5a, (E/Z)-3-[4-(Benzyloxy)benzylidene] indolin-2-one], the inhibition at 10 µM is reported as 0.75%.

Each compound was assayed on SR (assay: NCI-60 antiproliferative screen (SRB)). Conditions: Homo sapiens, 48 h, read-out: Growth inhibition (%).
Protocol: (§1) Anticancer activity was tested against 60 cancer cell lines (NCI-60) after 48h treatments with a single dosage of 10 μM of compounds by using sulforhodamine B assay [39] on the traditional 96-well platform. […] The human cancer cell lines of the NCI-60 panel are grown in RPMI 1640 medium supplemented with 5% FBS (fetal bovine serum) and 2 mM L-glutamine. […] For further analysis of promising compounds, five dose screens were performed against the NCI-60 panel. Drug treatments are performed in 5 doses using 10-fold or ½ log dose dilutions.
`O=C1Nc2ccccc2C1=Cc1ccc(OCc2ccccc2)cc1` (mixture of isomers) [Compound 5a, (E/Z)-3-[4-(Benzyloxy)benzylidene] indolin-2-one] showed an inhibition at 10 µM of 14.6%.

Each compound was assayed on OVCAR-4 (assay: NCI-60 antiproliferative screen (SRB)). Conditions: Homo sapiens, OVCAR-4, 48 h, read-out: Growth inhibition (%).
Protocol: as §1
For `O=C1Nc2ccccc2C1=Cc1ccc(OCc2ccccc2)cc1` (mixture of isomers) [Compound 5a, (E/Z)-3-[4-(Benzyloxy)benzylidene] indolin-2-one], the inhibition at 10 µM was -7.99%.
